From patent US12139499B2, “Heteroaryl compounds for treating Huntington's disease” (PTC THERAPEUTICS, INC., priority 2018, dated 2024) come the findings set out here.

Where only a bound is given, the exact number is not on record here.

The experiment relates to Endogenous Huntingtin Protein. The experiment can be described thus: Endogenous Huntingtin Protein Assay (ELISA-based MSD electrochemiluminescence). The following applies: Table 1. It is filed as cell-based. The procedure, abridged:
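Huntingtin was captured overnight at 4 °C on plates coated with 1 μg/mL MW1 (polyQ-expanded) or MAB2166 antibody and BSA-blocked. Detection used a rabbit monoclonal and then a SULFO-TAG goat anti-rabbit antibody (0.25 μg/mL, 1 h each, room temperature). Signal was read by electrochemiluminescence.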

One may read the IC50 as the concentration that gives 50% inhibition. Read a low IC50 as greater potency in that assay. Turning to `Cc1cn2cc(-c3cc4sc(N(C)[C@@H]5CC(C)(C)NC(C)(C)[C@@H]5F)nc4cn3)cc(C#N)c2n1` [Compound 325, 6-(2-{[(3R,4R)-3-fluoro-2,2,6,6-tetramethylpiperidin-4-yl](methyl)amino}[1,3]thiazolo[4,5-c]pyridin-6-yl)-2-methylimidazo[1,2-a]pyridine-8-carbonitrile], the concentration for half-maximal inhibition (IC50) is no more than 0.1 µM.
The value for `Cc1cn2cc(-c3cc4sc(N(C)[C@H]5C[C@]6(C)CC[C@@](C)(N6)[C@H]5F)nc4cn3)cc(F)c2n1` [Compound 326] was no more than 0.1 µM; that for `CN(c1nc2nnc(-c3ccc(-n4ccnc4)cc3O)cc2s1)C1CCNCC1` [Compound 327, 5-(1H-imidazol-1-yl)-2-{6-[methyl(piperidin-4-yl)amino][1,3]thiazolo[4,5-c]pyridazin-3-yl}phenol] was 0.1 to 0.5 µM; that for `CN(c1nc2nnc(-c3cc(F)c(-c4cn[nH]c4)cc3F)cc2s1)C1CCNCC1` [Compound 328, 3-[2,5-difluoro-4-(1H-pyrazol-4-yl)phenyl]-N-methyl-N-(piperidin-4-yl)[1,3]thiazolo[4,5-c]pyridazin-6-amine] was 0.1 to 0.5 µM.
For `CN(c1nc2nnc(-c3ccc(-c4c[nH]nc4F)cc3O)cc2s1)C1CCNCC1` [Compound 329, 5-(3-fluoro-1H-pyrazol-4-yl)-2-{6-[methyl(piperidin-4-yl)amino][1,3]thiazolo[4,5-c]pyridazin-3-yl}phenol], the IC50 was no more than 0.1 µM.
In the case of `CN1CCC(N(C)c2nc3nnc(-c4ccc(-c5c[nH]nc5F)cc4O)cc3s2)CC1` [Compound 332, 5-(3-fluoro-1H-pyrazol-4-yl)-2-{6-[methyl(1-methylpiperidin-4-yl)amino][1,3]thiazolo[4,5-c]pyridazin-3-yl}phenol] it was no more than 0.1 µM; in that of `Oc1cc(-c2cn[nH]c2)ccc1-c1cc2sc(N3CCNCC3)nc2nn1` [Compound 334, 2-[6-(piperazin-1-yl)[1,3]thiazolo[4,5-c]pyridazin-3-yl]-5-(1H-pyrazol-4-yl)phenol], 0.1 to 0.5 µM.
In the case of `Oc1cc(-c2cn[nH]c2)ccc1-c1nc2cnc(C3=CCNCC3)cc2s1` [Compound 335, 5-(1H-pyrazol-4-yl)-2-[6-(1,2,3,6-tetrahydropyridin-4-yl)[1,3]thiazolo[4,5-c]pyridin-2-yl]phenol] it was 1 to 3 µM; in that of `CN1C[C@H](F)[C@H](Nc2nc3nnc(-c4ccc(-c5cn[nH]c5)cc4O)cc3s2)C1` [Compound 336, 2-(6-{[(3R,4S)-4-fluoro-1-methylpyrrolidin-3-yl]amino}[1,3]thiazolo[4,5-c]pyridazin-3-yl)-5-(1H-pyrazol-4-yl)phenol], 1 to 3 µM.
`CC1(C)C=C(c2cc3sc(-c4ccc(-c5cn[nH]c5)cc4O)nc3cn2)CC(C)(C)N1` [Compound 337, 5-(1H-pyrazol-4-yl)-2-[6-(2,2,6,6-tetramethyl-1,2,3,6-tetrahydropyridin-4-yl)[1,3]thiazolo[4,5-c]pyridin-2-yl]phenol] displayed an IC50 of 0.5 to 1 µM.
The value for `Oc1cc(-c2cn[nH]c2)ccc1-c1cc2sc(N3CC4(CCCNC4)C3)nc2nn1` [Compound 338, 2-[6-(2,6-diazaspiro[3.5]nonan-2-yl)[1,3]thiazolo[4,5-c]pyridazin-3-yl]-5-(1H-pyrazol-4-yl)phenol] was 0.5 to 1 µM; that for `CN1CCC2(CC1)CCN2c1nc2nnc(-c3ccc(-c4cn[nH]c4)cc3O)cc2s1` [Compound 339, 2-[6-(7-methyl-1,7-diazaspiro[3.5]nonan-1-yl)[1,3]thiazolo[4,5-c]pyridazin-3-yl]-5-(1H-pyrazol-4-yl)phenol] was no more than 0.1 µM; that for `CN1CCC2(CCN(c3nc4nnc(-c5ccc(-c6cn[nH]c6)cc5O)cc4s3)C2)C1` (stereo not drawn) [Compound 340, 2-[6-(7-methyl-2,7-diazaspiro[4.4]nonan-2-yl)[1,3]thiazolo[4.5-c]pyridazin-3-yl]-5-(1H-pyrazol-4-yl)phenol] was 1 to 3 µM.
`Oc1cc(-c2c[nH]nc2F)ccc1-c1cc2sc(N3CC4(CCNCC4)C3)nc2nn1` [Compound 341, 2-[6-(2,7-diazaspiro[3.5]nonan-2-yl)[1,3]thiazolo[4,5-c]pyridazin-3-yl]-5-(3-fluoro-1H-pyrazol-4-yl)phenol] registered an IC50 of 0.5 to 1 µM.
In the case of `CN1C[C@H](Nc2nc3nnc(-c4ccc(-c5cn[nH]c5)cc4O)cc3s2)[C@@H](F)C1` [Compound 342, 2-(6-{[(3S,4S)-4-fluoro-1-methylpyrrolidin-3-yl]amino}[1,3]thiazolo[4,5-c]pyridazin-3-yl)-5-(1H-pyrazol-4-yl)phenol] it was 0.1 to 0.5 µM; in that of `CN1CC(N(C)c2nc3nnc(-c4ccc(-c5cn[nH]c5)cc4O)cc3s2)C1` [Compound 343, 2-{6-[methyl(1-methylazetidin-3-yl)amino][1,3]thiazolo[4,5-c]pyridazin-3-yl}-5-(1H-pyrazol-4-yl)phenol], 0.1 to 0.5 µM.
In the case of `Oc1cc(-c2cn[nH]c2)ccc1-c1cc2sc(N3CC[C@H]4CNCC[C@H]43)nc2nn1` [Compound 344, 2-{6-[(3aS,7aR)-octahydro-1H-pyrrolo[3,2-c]pyridin-1-yl][1,3]thiazolo[4,5-c]pyridazin-3-yl]-5-(1H-pyrazol-4-yl)phenol] it was no more than 0.1 µM; in that of `CN[C@H]1CC[C@@H](N(C)c2nc3nnc(-c4ccc(-c5cn[nH]c5)cc4O)cc3s2)CC1` [Compound 345, 2-(6-{methyl[(1s,4s)-4-(methylamino)cyclohexyl]amino}[1,3]thiazolo[4,5-c]pyridazin-3-yl)-5-(1H-pyrazol-4-yl)phenol], 0.1 to 0.5 µM.
The value for `CN(c1nc2nnc(-c3ccc(-c4cn[nH]c4)cc3O)cc2s1)[C@@H]1CNC[C@@H]1F` [Compound 346, 2-(6-{[(3R,4S)-4-fluoropyrrolidin-3-yl](methyl)amino}[1,3]thiazolo[4,5-c]pyridazin-3-yl)-5-(1H-pyrazol-4-yl)phenol] was 0.1 to 0.5 µM.
For `CN1CC[C@@H]2[C@@H](CCN2c2nc3nnc(-c4ccc(-c5cn[nH]c5)cc4O)cc3s2)C1` [Compound 347, 2-{6-[(3aS,7aR)-5-methyloctahydro-1H-pyrrolo[3,2-c]pyridin-1-yl][1,3]thiazolo[4,5-c]pyridazin-3-yl}-5-(1H-pyrazol-4-yl)phenol], the IC50 lay within 1 to 3 µM.
In the case of `CN(c1nc2nnc(-c3ccc(-c4cn[nH]c4)cc3O)cc2s1)[C@@H]1CCCNC1` [Compound 348, 2-(6-{methyl[(3R)-piperidin-3-yl]amino}[1,3]thiazolo[4,5-c]pyridazin-3-yl)-5-(1H-pyrazol-4-yl)phenol] it was 0.1 to 0.5 µM.
The value for `CN(c1nc2nnc(-c3ccc(-c4cn[nH]c4)cc3O)cc2s1)[C@H]1CCCNC1` [Compound 349, 2-(6-{methyl[(3S)-piperidin-3-yl]amino}[1,3]thiazolo[4,5-c]pyridazin-3-yl)-5-(1H-pyrazol-4-yl)phenol] was no more than 0.1 µM.
In the case of `CNC1CC(N(C)c2nc3nnc(-c4ccc(-c5cn[nH]c5)cc4O)cc3s2)C1` (stereo not drawn) [Compound 350, 2-(6-{methyl[3-(methylamino)cyclobutyl]amino}[1,3]thiazolo[4,5-c]pyridazin-3-yl)-5-(1H-pyrazol-4-yl)phenol], the IC50 lay in the range of 0.1 to 0.5 µM.
Turning to `CN(C)[C@H]1CC[C@H](N(C)c2nc3nnc(-c4ccc(-c5cn[nH]c5)cc4O)cc3s2)CC1` [Compound 351, 2-(6-{[(1r,4r)-4-(dimethylamino)cyclohexyl](methyl)amino][1,3]thiazolo[4,5-c]pyridazin-3-yl)-5-(1H-pyrazol-4-yl)phenol], the IC50 was 1 to 3 µM.
As to `CN1CCC[C@H](N(C)c2nc3nnc(-c4ccc(-c5cn[nH]c5)cc4O)cc3s2)C1` [Compound 352, 2-(6-{methyl[(3S)-1-methylpiperidin-3-yl]amino}[1,3]thiazolo[4,5-c]pyridazin-3-yl)-5-(1H-pyrazol-4-yl)phenol], the 50% inhibitory concentration (IC50) was no more than 0.1 µM.
The value for `CN(c1nc2nnc(-c3ccc(-c4cn[nH]c4)cc3O)cc2s1)C1CNC1` [Compound 353, 2-{6-[(azetidin-3-yl)(methyl)amino][1,3]thiazolo[4,5-c]pyridazin-3-yl}-5-(1H-pyrazol-4-yl)phenol] was 0.1 to 0.5 µM; that for `Oc1cc(-c2cn[nH]c2)ccc1-c1cc2sc(N3CCC34CCNCC4)nc2nn1` [Compound 354, 2-[6-(1,7-diazaspiro[3.5]nonan-1-yl)[1,3]thiazolo[4,5-c]pyridazin-3-yl]-5-(1H-pyrazol-4-yl)phenol] was no more than 0.1 µM.
The value for `CN(c1nc2nnc(-c3ccc(-c4cn[nH]c4)cc3O)cc2s1)C1CCNCC1(C)C` (stereo not drawn) [Compound 355, 2-{6-[(3,3-dimethylpiperidin-4-yl)(methyl)amino][1,3]thiazolo[4,5-c]pyridazin-3-yl}-5-(1H-pyrazol-4-yl)phenol] was no more than 0.1 µM; that for `CN(c1nc2nnc(-c3ccc(-c4cn[nH]c4)cc3O)cc2s1)C1CC2(CNC2)C1` [Compound 356, 2-{6-[(2-azaspiro[3.3]heptan-6-yl)(methyl)amino][1,3]thiazolo[4,5-c]pyridazin-3-yl}-5-(1H-pyrazol-4-yl)phenol] was 0.1 to 0.5 µM; that for `Oc1cc(-c2cn[nH]c2)ccc1-c1cc2sc(NC3CCNCC3)nc2nn1` [Compound 357, 2-{6-[(piperidin-4-yl)amino][1,3]thiazolo[4,5-c]pyridazin-3-yl)-5-(1H-pyrazol-4-yl)phenol] was 0.1 to 0.5 µM.
The value for `CN(c1nc2nnc(-c3ccc(-c4cn[nH]c4)cc3O)cc2s1)[C@H]1CCNC[C@H]1F` [Compound 358, 2-(6-{[(3R,4S)-3-fluoropiperidin-4-yl](methyl)amino}[1,3]thiazolo[4,5-c]pyridazin-3-yl)-5-(1H-pyrazol-4-yl)phenol] was 0.5 to 1 µM; that for `Cc1nc2c(C)cc(-c3cc(F)c4nc([C@H]5C[C@@H](C)N[C@@H](C)C5)sc4c3)nc2o1` [Compound 359, 5-{2-[(2R,4r,6S)-2,6-dimethylpiperidin-4-yl]-4-fluoro-1,3-benzothiazol-6-yl}-2,7-dimethyl[1,3]oxazolo[5,4-b]pyridine] was no more than 0.1 µM; that for `CN[C@H]1C[C@@H](N(C)c2nc3nnc(-c4ccc(-c5cn[nH]c5)cc4O)cc3s2)C1` [Compound 361, 2-(6-{methyl[(1s,3s)-3-(methylamino)cyclobutyl]amino}[1,3]thiazolo[4,5-c]pyridazin-3-yl)-5-(1H-pyrazol-4-yl)phenol] was 0.1 to 0.5 µM.
